Experimental data published in patent US11617733B2, “Bicyclic compound and use thereof for medical purposes” (ONO PHARMACEUTICAL CO., LTD., priority 2009, dated 2023).

Assays:
[1] = target: T1, mouse FP receptor (Mus musculus, UniProt P43117); experiment: FP agonist activity (intracellular calcium concentration) in FP-CHO cells; assay type: cell-based; conditions: for EC50: FP-CHO cells, intracellular calcium concentration, read-out: Agonist activity on various prostanoid receptors: EC50 value, FP
T1 construct: expressed in transfected cells; host or cells: CHO cells (FP-CHO)
Description: (§1) (1-1) Measurement of Agonist Activity on Various Mouse Prostanoid Receptors
(§2) Using CHO cells (FP-CHO, EP1-CHO and IP-CHO, respectively) in which various mouse prostanoid receptors were forcibly expressed, respectively, agonist activity of test compounds on various prostanoid receptors was studied employing an intracellular calcium concentration regarding FP and EP1, and an intracellular cyclic AMP (hereinafter, abbreviated as cAMP) production amount regarding IP, as an index.
(§3) The test compound and a control substance (PGE2 and iroprost) were dissolved with dimethyl sulfoxide (DMSO) to prepare a 10 mmol/L solution. Regarding the prepared 10 mmol/L solution, upon use, the 10 mmol/L solution was thawed, stepwisely-diluted using DMSO, and diluted with a buffer solution for measurement or a buffer solution for measurement 2, which was subjected to an experiment.
(§4) Cells forcibly expressing various mouse prostanoid receptors were standing-cultured at 37° C. in the presence of 5% CO2 using an α-MEM medium (Sigma) (for culturing FP-CHO and EP1-CHO) containing inactivated (56° C., 30 minutes) 9.8 vol % dialysed-FBS (Invitrogen) and penicillin-streptomycin-glutamine (GIBCO-BRL), or nucleic acid-containing α-MEM (Sigma) (for culturing IP-CHO) containing inactivated (56° C., 30 minutes) 9.8 vol % dialysed-FBS (Invitrogen) and penicillin-streptomycin glutamine (Invitrogen). Subculturing was performed by the following method.
(§5) The medium was removed, and washed with a phosphate-buffered physiological saline not containing Ca^2+ and Mg^2+ two times. A suitable amount of trypsin-EDTA (Invitrogen) was added, this was incubated at 37° C. for about 3 minutes, cells were peeled, and a medium having a volume which is 10-fold a volume of trypsin-EDTA was added to stop an enzymatic reaction. After cells were recovered (120 g) into a centrifuging tube, and centrifuged at room temperature for 3 minutes, the supernatant was removed. Cells were suspended in a suitable amount of a medium, and seeded in a culturing flask.
(§6) (1-2) Measurement of FP and EP1 Agonist Activity (Measurement of Intracellular Calcium Concentration)
(§7) Regarding FP-CHO and EP1-CHO, by the same method as that of subculturing, cells were peeled and suspended and, before two days from measurement, the suspension was seeded on a 96-well UV plate so that the cell number per well became 1.0×10^4, and standing-cultured at 37° C. in the presence of 5% CO2. On the measurement day, after the medium was removed from each well of the 96-well UV plate, each well was washed with a phosphate-buffered physiological saline not containing Ca^2+ and Mg^2+ once. To each well was added 100 μL of a medium containing 5 μmol/L fura 2-AM (DOJINDO), 2.5 mmol/L Probenecid (Sigma), 20 μmol/L indometacin (Sigma) and 10 mmol/L HEPES (Invitrogen), and this was incubated for about 60 minutes in a CO2 incubator. After completion of the incubation, the medium was removed, and this was washed with a buffer solution for measurement (Hank's balanced salt solution (Nissui Pharmaceutical Co., Ltd., 9.8 g of the present product was dissolved in 1 L distilled water) containing 0.1 or 1 w/v % bovine serum albumin, 2 μmol/L indometacin, 2.5 mmol/L Probenecid and 10 mmol/L HEPES-NaOH (pH 7.4)) two times. To each well was added 120 μL of a buffer solution for measurement, and this was allowed to stand in a CO2 incubator for 30 minutes, and stabilized, which was subjected to an experiment.
(§8) The 96-well UV plate was set in a fluorescent spectral photometer (FDSS-3000, Hamamatsu Photonics K.K.), and an intracellular calcium concentration was measured. A buffered solution for measurement ([…]) containing an agonist at a variety of concentrations was added to perform a reaction. Measurement of an intracellular calcium concentration was performed by irradiating cells with excited light of 340 nm and 380 nm alternately, measuring a fluorescent intensity at 500 nm, and obtaining a fluorescent intensity ratio of 2-wavelength excitation. […]

[2] = target: T2, mouse EP1 receptor (Mus musculus, UniProt P35375); experiment: EP1 agonist activity (intracellular calcium concentration) in EP1-CHO cells; assay type: cell-based; conditions: for EC50: EP1-CHO cells, intracellular calcium concentration, read-out: Agonist activity on various prostanoid receptors: EC50 value, EP1
T2 construct: expressed in transfected cells; host or cells: CHO cells (EP1-CHO)
T2 sequence (P35375 1-405): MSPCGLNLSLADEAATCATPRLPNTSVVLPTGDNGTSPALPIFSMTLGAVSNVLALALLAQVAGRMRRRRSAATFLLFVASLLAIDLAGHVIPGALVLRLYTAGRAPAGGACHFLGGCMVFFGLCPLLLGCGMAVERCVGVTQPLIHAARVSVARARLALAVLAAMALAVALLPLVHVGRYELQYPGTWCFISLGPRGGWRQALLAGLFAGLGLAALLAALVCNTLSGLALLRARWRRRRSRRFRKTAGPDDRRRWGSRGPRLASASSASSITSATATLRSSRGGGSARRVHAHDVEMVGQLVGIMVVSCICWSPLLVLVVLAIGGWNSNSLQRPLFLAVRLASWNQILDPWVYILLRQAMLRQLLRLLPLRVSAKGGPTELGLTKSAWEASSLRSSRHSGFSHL
Description: as §1, §2, §3, §4, §5, §6, §7, §8

[3] = target: T3, mouse IP receptor (Mus musculus, UniProt P43252); experiment: IP agonist activity (cAMP concentration) in IP-CHO cells; assay type: cell-based; conditions: for EC50: IP-CHO cells, cAMP production, read-out: Agonist activity on various prostanoid receptors: EC50 value, IP
T3 construct: expressed in transfected cells; host or cells: CHO cells (IP-CHO)
Description: as §1, §2, §3, §4, §5
(1-3) Measurement of IP Agonist Activity (Measurement of cAMP Concentration)
On the measurement day, a medium was removed, and IP-CHO was washed with a phosphate-buffered physiological saline containing 2 mmol/L EDTA and not containing Ca^2+ and Mg^2+ once. A suitable amount of a phosphate-buffered physiological containing 2 mmol/L EDTA and not containing Ca^2+ and Mg^2+ was added, this was incubated at 37° C. for about 10 minutes, cells were peeled, cells were recovered (500 g) into a centrifuging tube, and centrifuged at room temperature for 3 minutes, and the supernatant was removed.
Cells were suspended in a suitable amount of a buffer solution for measurement 1 (MEM medium (Invitrogen) containing 0.1 w/v % bovine serum albumin (Sigma) and 2 μmol/L diclofenac (Sigma)), and centrifuged at room temperature for 3 minutes at 500 g, and the supernatant was removed. Cells were suspended in a buffer solution for measurement 2 (MEM medium (Invitrogen) containing 0.1 w/v % bovine serum albumin (Sigma), 2 μmol/L diclofenac (Sigma) and 1 mmol/L 3-isobutyl-1-methylxanthine), and each 25 μL of the suspension was dispensed into a 96-well ½ area plate so that the cell number per well became 5.0×10^4. A buffer solution for measurement 2 (25 μL) containing an agonist at a variety of concentrations was added to perform a reaction at room temperature for 30 minutes. Measurement of a cAMP concentration was performed using the cAMP HTRF HiRange kit (CIS bio International). According to the two step protocol of the kit manual, each 25 μL of cAMP-D2 and cryptate diluted with a lysis buffer were added, and this was incubated at room temperature for 1 hour. After incubation for 1 hour, time resolution fluorescence at 620 nm and 660 nm when excited at 340 nm was measured using Analyst GF (Molecular Device), and a ratio (TRF ratio) was obtained, thereby, a cAMP concentration was calculated from a calibration line. […]

[4] = test system: male dog (TOYO Beagle); experiment: Intraocular pressure lowering action in dog after ocular instillation; assay type: in vivo
Procedure: (2-1) Intraocular Pressure Lowering Action
To one eye of a male dog (TOYO Beagle) which had been sufficiently acclimated in advance was ocular-instilled 30 μL of each test compound (compound of Example 16 (35), compound of Example 16 (3) and compound of Example 16(25)) which had been adjusted with a base (containing citrate buffer pH 6.5, 0.5% polysorbate 80, 1% propylene glycol, 0.01% benzalkonium chloride) to 0.01% (w/v) or 0.001% (w/v), respectively. The other eye was not treated. As a positive control compound, latanoprost which is the known compound was used.
Thereafter, an ocular surface anesthetic (Benoxil eye drops 0.4%, Santen Pharmaceutical Co., Ltd.) was subjected to ocular instillation to locally anesthetize eyes, and an intraocular pressure of each test compound before ocular instillation and after 2, 4, 6, 8, and 24 hours from ocular instillation was measured. An intraocular pressure was measured using a pneumatic applanation flat tonometer (Model 30 Classic, REICHERT). An intraocular pressure lowering rate (%) was calculated by the following equation. Intraocular pressure lowering rate (%)=(intraocular pressure value before ocular instillation−intraocular pressure value at each point)/(intraocular pressure value before ocular instillation)×100 [Mathematic 1]

[5] = test system: male rabbit (NewZealandWhite); experiment: Aqueous humor protein concentration in rabbit after ocular instillation; assay type: in vivo; conditions: ocular instillation 30 μL, 0.1% (w/v), 0-8 hours
Procedure: (2-2) Assessment of Ocular Stimulating Property and Aqueous Humor Protein Concentration
To one eye of a male rabbit (NewZealandWhite, 2.0 to 3.0 kg) was ocular-instilled 30 μL of the compound of Example 16 (35), the compound of Example 16 (3) and the compound of Example 16 (25) which had been adjusted to 0.1% (w/v) with a base (containing citrate buffer pH 6.5, 0.5% polysorbate 80, 1% propylene glycol, 0.01% benzalkonium chloride), respectively. Thereafter, an aqueous humor in anterior chamber after 0, 1, 2, 4, 6 and 8 hours from ocular instillation was collected, and a protein concentration in the humor was measured. As a comparative compound, the aforementioned methyl ester of the compound of Example 12 described in Patent Literature 2 (i.e. compound of Example 10 described in Patent Literature 2) (hereinafter, abbreviated as Comparative Compound B in some cases) was used.
Regarding any test compound, a dose until a dissolution limit (150 to 1000 μg/mL) was administered and action of each active body was assessed.

T1 sequence (P43117 whole entry): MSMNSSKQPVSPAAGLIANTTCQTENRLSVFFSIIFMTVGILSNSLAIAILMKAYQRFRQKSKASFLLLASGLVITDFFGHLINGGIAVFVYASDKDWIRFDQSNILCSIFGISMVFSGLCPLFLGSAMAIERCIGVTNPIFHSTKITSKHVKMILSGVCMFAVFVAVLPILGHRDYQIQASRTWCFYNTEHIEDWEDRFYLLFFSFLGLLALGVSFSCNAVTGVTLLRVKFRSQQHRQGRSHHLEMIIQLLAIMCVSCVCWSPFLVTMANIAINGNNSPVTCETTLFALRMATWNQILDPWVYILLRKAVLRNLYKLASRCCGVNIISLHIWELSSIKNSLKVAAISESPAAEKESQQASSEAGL
T3 sequence (P43252 whole entry): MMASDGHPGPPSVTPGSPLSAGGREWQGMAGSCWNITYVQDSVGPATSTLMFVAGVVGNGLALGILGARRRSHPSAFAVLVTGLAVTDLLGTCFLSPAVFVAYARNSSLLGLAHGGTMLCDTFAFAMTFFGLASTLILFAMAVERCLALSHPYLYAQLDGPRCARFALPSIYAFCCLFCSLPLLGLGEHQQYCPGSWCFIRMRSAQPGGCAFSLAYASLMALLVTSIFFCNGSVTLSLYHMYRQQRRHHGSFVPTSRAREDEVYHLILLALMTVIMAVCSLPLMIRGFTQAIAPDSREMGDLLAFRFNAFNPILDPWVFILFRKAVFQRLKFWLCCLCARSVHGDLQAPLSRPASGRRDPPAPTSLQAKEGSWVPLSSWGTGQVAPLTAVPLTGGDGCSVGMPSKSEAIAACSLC

| Structure (SMILES) | Agonist activity on a FP receptor (in words) ([1]; summary of Table 7) | Agonist activity on an EP1 receptor (in words) ([2]; summary of Table 7) | Agonist activity on an IP receptor (in words) ([3]; summary of Table 7) | Intraocular pressure lowering action compared with positive control latanoprost (in words) [4] | Action on protein concentration in aqueous humor (in words) [5] | EC50 [1] [nM] | EC50 [2] [nM] | EC50 [3] [nM] |
| --- | --- | --- | --- | --- | --- | --- | --- | --- |
| O=C(O)CCC[C@H]1CC[C@@H]2[C@@H](/C=C/[C@@H](O)COc3ccccc3)[C@H](O)C[C@@H]2O1 [Comparative Compound A, reference compound] | has agonist activity | has agonist activity | has agonist activity | – | – | – | – | – |
| CC(C)OC(=O)CCC[C@H]1CC[C@@H]2[C@@H](/C=C/[C@@H](O)COc3cccc(Cl)c3)[C@H](O)C[C@@H]2OC1 [Example 16 (3), 2-Propanyl 4-{(3S, 5aR, 6R, 7R, 8aS)-6-[(1E, 3R)-4-(3-chlorophenoxy)-3-hydroxy-1-buten-1-yl]-7-hydroxyoctahydro-2H-cyclopenta[b]oxepin-3-yl}butanoate] | – | – | – | stronger intraocular pressure lowering action as compared with latanoprost | no action of raising a protein concentration in an aqueous humor | – | – | – |
| O=C(O)CCC[C@H]1CC[C@@H]2[C@@H](/C=C/[C@@H](O)COc3cccc(Cl)c3)[C@H](O)C[C@@H]2OC1 [Example 17 (3), 4-{(3S, 5aR, 6R, 7R, 8aS)-6-[(1E, 3R)-4-(3-chlorophenoxy)-3-hydroxy-1-buten-1-yl]-7-hydroxyoctahydro-2H-cyclopenta[b]oxepin-3-yl}butanoic acid] | – | – | – | – | – | 3 | 3200 | > 10000 |
| Cc1cccc(OC[C@H](O)/C=C/[C@@H]2[C@H]3CC[C@H](CCCC(=O)O)CO[C@H]3C[C@H]2O)c1 [Example 17 (4), 4-{(3S, 5aR, 6R, 7R, 8aS)-7-hydroxy-6-[(1E, 3R)-3-hydroxy-4-(3-methylphenoxy)-1-buten-1-yl]octahydro-2H-cyclopenta[b]oxepin-3-yl}butanoic acid] | – | – | – | – | – | 8.8 | > 10000 | > 10000 |
| O=C(O)CCC[C@H]1CC[C@@H]2[C@@H](/C=C/[C@@H](O)COc3ccccc3)[C@H](O)C[C@@H]2OC1 [Example 17 (23), 4-{(3S, 5aR, 6R, 7R, 8aS)-7-hydroxy-6-[(1E, 3R)-3-hydroxy-4-phenoxy-1-buten-1-yl]octahydro-2H-cyclopenta(b]oxepin-3-yl}butanoic acid] | – | – | – | – | – | 8.3 | 100 | > 10000 |
| O=C(O)CCC[C@H]1CC[C@@H]2[C@@H](/C=C/[C@@H](O)COc3cc(F)ccc3F)[C@H](O)C[C@@H]2OC1 [Example 17 (25), 4-{(3S, 5aR, 6R, 7R, 8aS)-6-[(1E, 3R)-4-(2,5-difluorophenoxy)-3-hydroxy-1-buten-1-yl]-7-hydroxyoctahydro-2H-cyclopenta[b]oxepin-3-yl}butanoic acid] | – | – | – | – | – | 2.4 | 857 | > 10000 |
| O=C(O)COC[C@H]1CC[C@@H]2[C@@H](/C=C/[C@@H](O)COc3cc(F)cc(Cl)c3)[C@H](O)C[C@@H]2OC1 [Example 29 (12), ({(3R, 5aR, 6R, 7R, 8aS)-6-[(1E,3R)-4-(3-chloro-5-fluorophenoxy)-3-hydroxy-1-buten-1-yl]-7-hydroxyoctahydro-2H-cyclopenta[b]oxepin-3-yl}methoxy)acetic acid] | – | – | – | – | – | 7.1 | > 10000 | > 10000 |
| O=C(O)CCC[C@H]1CC[C@@H]2[C@@H](/C=C/C(F)(F)COc3ccccc3)[C@H](O)C[C@@H]2OC1 [Example 32, 4-{(3S, 5aR, 6R, 7R, 8aS)-6-[(1E)-3,3-difluoro-4-phenoxy-1-buten-1-yl]-7-hydroxyoctahydro-2H-cyclopenta[b]oxepin-3-yl}butanoic acid] | – | – | – | – | – | 1.6 | > 10000 | > 10000 |
